Experiments:
[1] = system: Kras G12C mutant NCI-H358 cells; assay: Cell proliferation inhibition experiment, 3D cell model, CellTiter-Glo (H358); assay type: cell-based, human; conditions: NCI-H358, 2% FBS RPMI-1640, 384-well sphere plate, cultured 5 days with compound
Protocol: (§1) NCI-H358 was a human non-small cell lung cancer cell line with Kras G12C mutation, cultured in 10% FBS RPMI-1640 medium; A549 was a human lung adenocarcinoma cell line with Kras G12S mutation, cultured in 10% FBS F-12K medium. The cells in the logarithmic growth phase was taken, digested with trypsin EDTA, collected and counted, and H358 was adjusted to 1.8E4 cells/ml using 2% FBS RPMI-1640 medium, and A549 was adjusted to 8.9E3 cells/ml using 2% FBS F-12K medium; 800 (45 μl) H358 or 400 (45 μl) A549 cells were seeded in a 384-well sphere plate respectively, cultured overnight to establish a 3D cell model. DMSO was used to prepare 1000× compound 3.16-fold gradient concentration stock solution, and 2% FBS medium was used to dilute 100-fold to 10× compound stock solution. On the second day after cell seeding, 5 μl 10× compound stock solution was added to each cell culture well, the final concentration was 1×, and DMSO content was 0.1%. DMSO was used as the experimental control (control) and 2% FBS medium as the blank control (blank). After the compound and cells were added and cultured for 5 days, 25 μl CellTiter-Glo working solution was added to each well, mixed at 400 rpm and incubated for 30 minutes. After standing 30 minutes at room temperature, 40 μl of the mixture was transfered to a 384-well plate with a non-transparent white bottom, the luminescence chemiluminescence value was read, and the cells proliferation inhibition rate IR (%)=(RLU control-RLU compound)/(RLU control-RLU blank)×100% was calculated, Prism 6 four-parameter method was used to fit the compound's gradient dilution concentration and the corresponding cell proliferation inhibition rate, and the IC50 value was calculated.

[2] = system: A549 cells (Kras G12S mutation); assay: Cell proliferation inhibition experiment, 3D cell model, CellTiter-Glo (A549); assay type: cell-based, human; conditions: A549, 2% FBS F-12K, 384-well sphere plate, cultured 5 days with compound
Protocol: as §1

SMILES | IC50 [1] [nM] | IC50 [2] [nM] | IC50 ([1]; Homo sapiens, NCI-H358, 120 h) [nM] | IC50 ([2]; Homo sapiens, A549, 120 h) [nM] | other results
C=CC(=O)N1CCN(c2nc(OC[C@@H]3CCCN3C)nc3c(OC4CC4)c(-c4c(C)ccc5[nH]ncc45)c(Cl)cc23)CC1 (single isomer, unassigned) [Compound Z7B] | 6 | > 1000 | – | – | –
C=CC(=O)N1CCN(c2nc(OC3CCN(C)CC3)nc3c(OC4CC4)c(-c4c(C)ccc5[nH]ncc45)c(Cl)cc23)CC1 (single isomer, unassigned) [Compound Z12A] | 9 | > 1000 | – | – | –
C=CC(=O)N1CCN(c2nc(OC3CCN(C)CC3)nc3c(OC4CC4)c(-c4c(C)ccc5[nH]ncc45)c(Cl)cc23)CC1 (single isomer, unassigned) [Compound Z12B] | 390 | > 5000 | – | – | –
C=CC(=O)N1CCN(c2nc(OC[C@@H]3CCCN3C)nc3c(OC4CC4)c(-c4c(C)ccc5[nH]ncc45)c(Cl)cc23)[C@@H](C)C1 (single isomer, unassigned) [Compound Z28B] | 4 | > 1000 | – | – | –
C=CC(=O)N1CCN(c2nc(O[C@@H]3CCN(C)C3)nc3c(OC4CC4)c(-c4c(C)ccc5[nH]ncc45)c(Cl)cc23)CC1 (single isomer, unassigned) [Compound Z39B] | 12 | > 30000 | – | – | –
C=CC(=O)N1CCN(c2nc(O[C@H]3CCN(C)C3)nc3c(OC4CC4)c(-c4c(C)ccc5[nH]ncc45)c(Cl)cc23)CC1 (single isomer, unassigned) [Compound Z40A] | 12 | > 30000 | – | – | –
C=CC(=O)N1CCN(c2nc(OC[C@@H]3CCCN3C)nc3c(OC4CC4)c(-c4c(C)ccc5[nH]ncc45)c(OC)cc23)[C@@H](C)C1 (single isomer, unassigned) [Compound Z48B] | – | – | 10 | > 10000 | –
C=CC(=O)N1CCN(c2nc(OC[C@@H]3CCCN3C)nc3c(OC4CC4)c(-c4c(C)ccc5[nH]ncc45)c(OC)cc23)C[C@@H]1CC#N (single isomer, unassigned) [Compound Z50A] | – | – | 50 | > 10000 | –
C=CC(=O)N1CCN(c2nc(OC3CCN(C)CC3)nc3c(OC4CC(F)(F)C4)c(-c4c(C)ccc5[nH]ncc45)c(Cl)cc23)CC1 [Compound Z1, 1-(4-(6-chloro-8-(3,3-difluorocyclobutoxy)-7-(5-methyl-1H-indazol-4-yl)-2-((1-methylpiperidin-4-yl)oxy)quinazolin-4-yl)piperazin-1-yl)prop-2-en-1-one] | – | – | 108 | > 1000 | –
C=CC(=O)N1CCN(c2nc(OC3CCN(C)CC3)nc3c(OC4CCOCC4)c(-c4c(C)ccc5[nH]ncc45)c(Cl)cc23)CC1 [Compound Z2, 1-(4-(6-chloro-7-(5-methyl-1H-indazol-4-yl)-2-((1-methylpiperidin-4-yl)oxy)-8-((tetrahydro-2H-pyran-4-yl)oxy)quinazolin-4-yl)piperazin-1-yl)prop-2-en-1-one] | – | – | 126 | > 1000 | –
C=CC(=O)N1CCN(c2nc(OC3CCN(C)CC3)nc3c(OC4CCC4)c(-c4c(C)ccc5[nH]ncc45)c(Cl)cc23)CC1 [Compound Z3, 1-(4-(6-chloro-8-cyclobutoxy-7-(5-methyl-1H-indazol-4-yl)-2-((1-methylpiperidin-4-yl)oxy)quinazolin-4-yl)piperazin-1-yl)prop-2-en-1-one] | – | – | – | – | IC50 ([1]; Homo sapiens, 120 h): 60 nM; IC50 ([2]; Homo sapiens, 120 h): > 1000 nM
C=CC(=O)N1CCN(c2nc(OC[C@@H]3CCCN3C)nc3c(OC4CC(F)(F)C4)c(-c4c(C)ccc5[nH]ncc45)c(Cl)cc23)CC1 [Compound Z4, 1-(4-(6-chloro-8-(3,3-difluorocyclobutoxy)-7-(5-methyl-1H-indazol-4-yl)-2-(((S)-1-methylpyrrolidin-2-yl)methoxy)quinazolin-4-yl)piperazin-1-yl)prop-2-en-1-one] | – | – | 136 | > 1000 | –
C=CC(=O)N1CCN(c2nc(OC[C@@H]3CCCN3C)nc3c(OC4CC(F)(F)C4)c(-c4c(C)ccc5[nH]ncc45)c(Cl)cc23)[C@@H](C)C1 [Compound Z5] | – | – | 311 | > 10000 | –

Source: US20220363681A1, “OXO SIX-MEMBERED CYCLOPYRIMIDINE COMPOUND, PREPARATION METHOD AND MEDICAL USE THEREOF” (GenFleet Therapeutics (Shanghai) Inc., priority 2019, published 2022)
